From patent publication US7414048B2, “4,5-dihydro-isoxazole derivatives and their pharmaceutical use” (Janssen Pharmaceutica, N.V., priority 1998, dated 2008)

system: T cell blast formation in human blood; assay: In vitro inhibition of T cell blast formation in human blood (human whole blood blast formation, PHA stimulated, flow cytometry); assay type: cell-based; conditions: Test Dose 1 × 10^−5 (unit not given), 72 hours, mean where multiple measurements
Procedure: Cells are collected after a 72 hours culture period at 37° C., supernatant is removed by centrifugation and red blood cells are lysed by a hypotonic buffer. The remaining white blood cells are collected in PBS containing propidium iodide. The blast formation is analyzed using a benchtop flow cytometer (Cytoron, Ortho) equipped with an argon-ion laser. […] When multiple measurements were performed, a mean value was calculated for the percentage inhibition of T cell blast formation.

`O=C(Nc1ccc(-c2noc3cc(F)ccc23)cc1)C1CC(c2cccnc2)=NO1` (centres unmarked) [Compound 466] was tested, and the “% Inhibition of T cell blast formation” value was 82%.

same assay, conditions: Test Dose 1 × 10^−6 (unit not given), 72 hours, mean where multiple measurements

Going from `Cc1cccc(NC(c2ccccc2)c2ccc(NC(=O)C3CC(c4cccnc4)=NO3)cc2)c1C` (centres unmarked) [Compound 175] to `O=C(Nc1ccc(C(Nc2ccccc2O)c2ccccc2)cc1)C1CC(c2cccnc2)=NO1` (centres unmarked) [Compound 203], the “% Inhibition of T cell blast formation” value rises from 42% to 62%.

Going from `NC(=O)c1ccccc1NC(c1ccccc1)c1ccc(NC(=O)C2CC(c3cccnc3)=NO2)cc1` (centres unmarked) [Compound 192] to `O=C(Cc1ccccc1)NC(c1ccccc1)c1ccc(NC(=O)C2CC(c3cccnc3)=NO2)cc1` (centres unmarked) [Compound 166], the “% Inhibition of T cell blast formation” value falls from 72% to 66%.

Going from `O=C(Nc1ccc(-c2noc(-c3ccccc3)n2)cc1)C1CC(c2cccnc2)=NO1` (centres unmarked) [Compound 452] to `O=C(Nc1ccc(-c2nc(-c3ccccc3)no2)cc1)C1CC(c2cccnc2)=NO1` (centres unmarked) [Compound 453], the “% Inhibition of T cell blast formation” value falls from 79% to 61%.

Going from `Cc1cccc(C(=O)c2ccc(NC(=O)C3CC(c4cccnc4)=NO3)cc2)c1` (centres unmarked) [Compound 10] to `O=C(NCc1c(F)cccc1F)c1ccc(NC(=O)C2CC(c3cccnc3)=NO2)cc1` (centres unmarked) [Compound 279], the “% Inhibition of T cell blast formation” value falls from 75% to 74%.

Compared with `CCCC(=O)NC(c1ccccc1)c1ccc(NC(=O)C2CC(c3cccnc3)=NO2)cc1` (centres unmarked) [Compound 156], `COC(c1ccccc1)c1ccc(NC(=O)C2CC(c3cccnc3)=NO2)cc1.Cl` (centres unmarked) [Compound 52] is higher in “% Inhibition of T cell blast formation” value: 56% for the first, 89% for the second.

Going from `COc1ccc(CNC(=O)c2ccc(NC(=O)C3CC(c4cccnc4)=NO3)cc2)cc1` (centres unmarked) [Compound 290] to `CNC(=O)c1ccc(CNC(=O)c2ccc(NC(=O)C3CC(c4cccnc4)=NO3)cc2)cc1` (centres unmarked) [Compound 427], the “% Inhibition of T cell blast formation” value rises from 67% to 80%.

Going from `CC(C#N)(c1ccccc1)c1ccc(NC(=O)C2CC(c3cccnc3)=NO2)cc1` (centres unmarked) [Compound 45] to `CC(=O)OCC(C#N)(c1ccccc1)c1ccc(NC(=O)C2CC(c3cccnc3)=NO2)cc1` (centres unmarked) [Compound 413], the “% Inhibition of T cell blast formation” value rises from 78% to 85%.

First: CC(C)OC(c1ccccc1)c1ccc(NC(=O)C2CC(c3cccnc3)=NO2)cc1.Cl (centres unmarked) [Compound 418]
Second: CCOc1ccc(C)c(NC(c2ccccc2)c2ccc(NC(=O)C3CC(c4cccnc4)=NO3)cc2)c1 (centres unmarked) [Compound 172]
The “% Inhibition of T cell blast formation” value of the first is higher: 75% for the first, 35% for the second.

In the case of `N#CC(OC(=O)c1ccccc1)(c1ccccc1)c1ccc(NC(=O)C2CC(c3cccnc3)=NO2)cc1` (centres unmarked) [Compound 415], the “% Inhibition of T cell blast formation” value is reported as 65%.

same assay, conditions: Test Dose 1 × 10^−7 (unit not given), 72 hours, mean where multiple measurements

`O=C(Nc1ccc(C(=NO)c2ccncc2)cc1)C1CC(c2cccnc2)=NO1` (centres unmarked) [Compound 428] was tested, and the “% Inhibition of T cell blast formation” value was 57%.

same assay, conditions: Test Dose 3 × 10^−7 (unit not given), 72 hours, mean where multiple measurements

Going from `O=C(Nc1ccc(C(=O)N2CCC(c3ccccc3)CC2)cc1)C1CC(c2cccnc2)=NO1` (centres unmarked) [Compound 307] to `O=C(Nc1ccc(C(=O)N2CCC(O)(Cc3ccccc3)CC2)cc1)C1CC(c2cccnc2)=NO1` (centres unmarked) [Compound 304], the “% Inhibition of T cell blast formation” value falls from 41% to 36%.

Compared with `O=C(Nc1ccc(C(O)c2ccc(F)cc2F)cc1)C1CC(c2cccnc2)=NO1` (centres unmarked) [Compound 408], `CC(C)=NOC(c1ccccc1)c1ccc(NC(=O)[C@@H]2CC(c3cccnc3)=NO2)cc1` (stereo partly drawn) [Compound 504, (5S)-4,5-dihydro-N-[4-[[[(1-methylethylidene)amino]oxo]phenylmethyl]phenyl]-3-(3-pyridinyl)-5-isoxazolecarboxamide] is higher in “% Inhibition of T cell blast formation” value: 71% for the first, 75% for the second.

Compared with `O=C(/C=C/c1ccc2c(c1)OCO2)c1ccc(NC(=O)C2CC(c3cccnc3)=NO2)cc1` (racemic) [Compound 469], `O=C(/C=C/c1ccccc1)c1ccc(NC(=O)C2CC(c3cccnc3)=NO2)cc1` (racemic) [Compound 478] is higher in “% Inhibition of T cell blast formation” value: 65% for the first, 70% for the second.

`O=C(c1ccc(NC(=O)C2CC(c3cccnc3)=NO2)cc1)c1ccc(OC(F)(F)F)cc1` (centres unmarked) [Compound 384] was tested, and the “% Inhibition of T cell blast formation” value was 68%.
